PubChem BioAssay AID248 (DTP/NCI, 2004)
“And” between values parts separate entries of the source, which are not always exact repeats. Equal entries are not always repeated. Toxic doses and inconclusive results are not listed. Rule as the data show it: active = T/C of 150% or more; inactive = T/C below 125%.

Tested on: L1210 leukemia ip in BDF1 mice, survival T/C
Assay: NCI In Vivo Anticancer Drug Screen. Data for tumor model L1210 Leukemia (intraperitoneal) in B6D2F1 (BDF1) mice
Details: endpoint: mean survival time, higher = longer survival
Method in brief: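 Tumor was transplanted into mice, which were then dosed with test compound or vehicle alone. Survival was recorded for each group, and the treated figure was expressed relative to the control figure.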

[1] = dose: 100.0 mg/kg/injection, schedule: Q01DX001 (ip), vehicle: Klucel (hydroxypropylcellulose) (HPC)
[2] = dose: 200.0 mg/kg/injection, schedule: Q01DX001 (ip), vehicle: Klucel (hydroxypropylcellulose) (HPC)
[3] = dose: 400.0 mg/kg/injection, schedule: Q01DX001 (ip), vehicle: Klucel (hydroxypropylcellulose) (HPC)
[4] = dose: 100.0 mg/kg/injection, schedule: Q04DX003 (ip), vehicle: Klucel (hydroxypropylcellulose) (HPC)
[5] = dose: 200.0 mg/kg/injection, schedule: Q04DX003 (ip), vehicle: Klucel (hydroxypropylcellulose) (HPC)
[6] = dose: 400.0 mg/kg/injection, schedule: Q04DX003 (ip), vehicle: Klucel (hydroxypropylcellulose) (HPC)
[7] = dose: 75.0 mg/kg/injection, schedule: Q01DX001 (ip), vehicle: saline
[8] = dose: 150.0 mg/kg/injection, schedule: Q01DX001 (ip), vehicle: saline
[9] = dose: 300.0 mg/kg/injection, schedule: Q01DX001 (ip), vehicle: saline
[10] = dose: 100.0 mg/kg/injection, schedule: Q01DX001 (ip), vehicle: carboxymethylcellulose (CMC)
[11] = dose: 200.0 mg/kg/injection, schedule: Q01DX001 (ip), vehicle: carboxymethylcellulose (CMC)
[12] = dose: 400.0 mg/kg/injection, schedule: Q01DX001 (ip), vehicle: carboxymethylcellulose (CMC)
[13] = dose: 100.0 mg/kg/injection, schedule: Q01DX009 (ip), vehicle: Klucel (hydroxypropylcellulose) (HPC)
[14] = dose: 200.0 mg/kg/injection, schedule: Q01DX009 (ip), vehicle: Klucel (hydroxypropylcellulose) (HPC)
[15] = dose: 400.0 mg/kg/injection, schedule: Q01DX009 (ip), vehicle: Klucel (hydroxypropylcellulose) (HPC)
[16] = dose: 100.0 mg/kg/injection, schedule: Q01DX009 (ip), vehicle: saline with Tween-80
[17] = dose: 100.0 mg/kg/injection, schedule: Q04DX003 (ip), vehicle: saline with Tween-80
[18] = dose: 200.0 mg/kg/injection, schedule: Q04DX003 (ip), vehicle: saline with Tween-80
[19] = dose: 100.0 mg/kg/injection, schedule: Q04DX002 (ip), vehicle: Klucel (hydroxypropylcellulose) (HPC)

Measured: T/C

c1ccc(SCC2C3CSC4C3CC2C4Sc2ccccc2)cc1 (stereo not drawn)
inactive: dose: 100.0 mg/kg/injection, schedule: Q01DX001 (ip), vehicle: saline with Tween-80 98 % of control | dose: 200.0 mg/kg/injection, schedule: Q01DX001 (ip), vehicle: saline with Tween-80 105 % of control | dose: 400.0 mg/kg/injection, schedule: Q01DX001 (ip), vehicle: saline with Tween-80 94 % of control

O=C(c1ccccc1)c1cc2ccccc2oc1=O
inactive: [1] 103 % of control | [2] 98 % of control | [3] 90 % of control

OCCc1cc2ccccc2s1
inactive: [4] 107 % of control | [5] 103 % of control | [6] 113 % of control

Cn1c(Cc2ccccc2)c(-c2ccccc2)c(-c2ccccc2)c1Cc1ccccc1
inactive: [7] 94 % of control | [8] 88 % of control | [9] 93 % of control

Nc1cccc(OCc2cccc([N+](=O)[O-])c2)c1
inactive: [10] 101 % of control | [11] 90 % of control | [12] 86 % of control

O=C(Nc1nccs1)Nc1ccc(Cl)cc1[N+](=O)[O-]
inactive: [13] 105 % of control | [14] 100 % of control | [15] 102 % of control

COc1cc2cc3c4cc(OC)c(OC)cc4cc[n+]3c(/C=C/c3cccc(O)c3)c2cc1OC
inactive: dose: 25.0 mg/kg/injection, schedule: Q04DX002 (ip), vehicle: carboxymethylcellulose (CMC) 97 % of control and 108 % of control | dose: 50.0 mg/kg/injection, schedule: Q04DX002 (ip), vehicle: carboxymethylcellulose (CMC) 101 % of control | [10] 102 % of control and 110 % of control | [11] 110 % of control and 119 % of control | [12] 98 % of control and 114 % of control | dose: 400.0 mg/kg/injection, schedule: Q04DX002 (ip), vehicle: carboxymethylcellulose (CMC) 105 % of control and 115 % of control

O=C(CN1C(=O)c2ccccc2C1=O)OC(c1ccccc1)c1ccccc1
inactive: [13] 102 % of control | [4] 98 % of control | [14] 104 % of control | [5] 96 % of control | [15] 104 % of control | [6] 96 % of control

NC(=S)N/N=C/c1ccc2ccccc2c1
inactive: dose: 50.0 mg/kg/injection, schedule: Q01DX001 (ip), vehicle: saline 107 % of control | dose: 100.0 mg/kg/injection, schedule: Q01DX001 (ip), vehicle: saline 107 % of control | dose: 200.0 mg/kg/injection, schedule: Q01DX001 (ip), vehicle: saline 107 % of control | dose: 400.0 mg/kg/injection, schedule: Q01DX001 (ip), vehicle: saline 116 % of control

NC(=O)c1cc(C(N)=O)cc([N+](=O)[O-])c1
inactive: dose: 50.0 mg/kg/injection, schedule: Q01DX009 (ip), vehicle: saline with Tween-80 101 % of control | [16] 101 % of control | [17] 100 % of control | [18] 96 % of control

O=C(N/N=C\c1cc(Cl)cc(Cl)c1O)c1cccnc1
inactive: [13] 100 % of control | [14] 89 % of control

CC(C)C[n+]1cc([O-])on1
inactive: dose: 6.25 mg/kg/injection, schedule: Q01DX009 (ip), vehicle: Klucel (hydroxypropylcellulose) (HPC) 97 % of control | dose: 12.5 mg/kg/injection, schedule: Q01DX009 (ip), vehicle: Klucel (hydroxypropylcellulose) (HPC) 100 % of control

O=S1(=O)CC2(N3CCCC3)C3c4ccccc4C(c4ccccc43)C21 (stereo not drawn)
inactive: dose: 25.0 mg/kg/injection, schedule: Q04DX002 (ip), vehicle: Klucel (hydroxypropylcellulose) (HPC) 102 % of control | dose: 50.0 mg/kg/injection, schedule: Q04DX002 (ip), vehicle: Klucel (hydroxypropylcellulose) (HPC) 102 % of control | [19] 117 % of control

CC(=O)[O][Hg][C]([Hg][O]C(C)=O)([Hg][O]C(C)=O)[Hg][O]C(C)=O
inactive: [1] 91 % of control | [2] 96 % of control | [3] 89 % of control

O=C(/C=C\C=C\c1ccccc1)c1ccc([N+](=O)[O-])cc1
inactive: [10] 92 % of control and 89 % of control | dose: 100.0 mg/kg/injection, schedule: Q01DX009 (ip), vehicle: carboxymethylcellulose (CMC) 100 % of control and 89 % of control | dose: 100.0 mg/kg/injection, schedule: Q04DX002 (ip), vehicle: gum acacia 95 % of control and 99 % of control | dose: 100.0 mg/kg/injection, schedule: Q04DX003 (ip), vehicle: carboxymethylcellulose (CMC) 93 % of control and 86 % of control | [11] 95 % of control and 89 % of control | dose: 200.0 mg/kg/injection, schedule: Q01DX009 (ip), vehicle: carboxymethylcellulose (CMC) 90 % of control | dose: 200.0 mg/kg/injection, schedule: Q04DX002 (ip), vehicle: gum acacia 101 % of control and 89 % of control | dose: 200.0 mg/kg/injection, schedule: Q04DX003 (ip), vehicle: carboxymethylcellulose (CMC) 86 % of control and 90 % of control | [12] 92 % of control and 89 % of control | dose: 400.0 mg/kg/injection, schedule: Q01DX009 (ip), vehicle: carboxymethylcellulose (CMC) 96 % of control and 97 % of control | dose: 400.0 mg/kg/injection, schedule: Q04DX002 (ip), vehicle: gum acacia 92 % of control and 89 % of control | dose: 400.0 mg/kg/injection, schedule: Q04DX003 (ip), vehicle: carboxymethylcellulose (CMC) 90 % of control

CN(C)C(=O)NN1CCCCCC1
inactive: dose: 100.0 mg/kg/injection, schedule: Q04DX003 (ip), vehicle: saline 96 % of control | dose: 200.0 mg/kg/injection, schedule: Q04DX003 (ip), vehicle: saline 96 % of control | dose: 400.0 mg/kg/injection, schedule: Q04DX003 (ip), vehicle: saline 100 % of control

O=C(OCCCCCCOC(=O)c1cccc([N+](=O)[O-])c1)c1cccc([N+](=O)[O-])c1
inactive: dose: 100.0 mg/kg/injection, schedule: Q01DX001 (ip), vehicle: other 93 % of control | dose: 200.0 mg/kg/injection, schedule: Q01DX001 (ip), vehicle: other 93 % of control | dose: 400.0 mg/kg/injection, schedule: Q01DX001 (ip), vehicle: other 101 % of control

Cc1ccc(NC(=O)OC/C=C/c2ccccc2)c([N+](=O)[O-])c1
inactive: [4] 90 % of control | [5] 93 % of control | [6] 93 % of control

O=C(CCCCl)CC(O)(C(F)(F)F)C(F)(F)F
inactive: [16] 104 % of control | [17] 101 % of control | dose: 200.0 mg/kg/injection, schedule: Q01DX009 (ip), vehicle: saline with Tween-80 93 % of control | [18] 94 % of control | dose: 400.0 mg/kg/injection, schedule: Q04DX003 (ip), vehicle: saline with Tween-80 100 % of control

c1ccc(-c2sc(-c3ccccc3)c(-c3ccccc3)c2-c2ccccc2)cc1
inactive: [4] 93 % of control | [5] 95 % of control | [6] 95 % of control

NNC(=O)C1CCC1C(=O)NN (stereo not drawn)
inactive: [7] 103 % of control | dose: 75.0 mg/kg/injection, schedule: Q04DX003 (ip), vehicle: saline 96 % of control | [8] 99 % of control | dose: 150.0 mg/kg/injection, schedule: Q04DX003 (ip), vehicle: saline 103 % of control | [9] 97 % of control | dose: 300.0 mg/kg/injection, schedule: Q04DX003 (ip), vehicle: saline 103 % of control

COc1ccc(NC(=O)COc2cccc(Cl)c2)cc1S(=O)(=O)F
inactive: dose: 25.0 mg/kg/injection, schedule: Q04DX003 (ip), vehicle: gum acacia 98 % of control | dose: 50.0 mg/kg/injection, schedule: Q04DX003 (ip), vehicle: gum acacia 95 % of control | dose: 100.0 mg/kg/injection, schedule: Q04DX003 (ip), vehicle: gum acacia 101 % of control | dose: 200.0 mg/kg/injection, schedule: Q04DX003 (ip), vehicle: gum acacia 95 % of control | dose: 400.0 mg/kg/injection, schedule: Q04DX003 (ip), vehicle: gum acacia 92 % of control

CCOC(=O)c1cnc(SC)nc1OCC
inactive: dose: 12.0 mg/kg/injection, schedule: Q01DX001 (ip), vehicle: Klucel (hydroxypropylcellulose) (HPC) 93 % of control | dose: 25.0 mg/kg/injection, schedule: Q01DX001 (ip), vehicle: Klucel (hydroxypropylcellulose) (HPC) 104 % of control

CC1CCN(C(=O)Nc2ccccc2)CC1
inactive: [19] 98 % of control | dose: 200.0 mg/kg/injection, schedule: Q04DX002 (ip), vehicle: Klucel (hydroxypropylcellulose) (HPC) 117 % of control | dose: 400.0 mg/kg/injection, schedule: Q04DX002 (ip), vehicle: Klucel (hydroxypropylcellulose) (HPC) 103 % of control
